Measurements reported in US20050228180A1, “Alpha, omega-dicarboximide derivatives as useful uro-selective a1a adrenoceptor blockers” (priority 2002, published 2005).
Structures can show the parent of a compound that is named as a salt.

Key:
[1] = target: T1, α1A adrenoceptor (Rattus norvegicus, UniProt P43140); assay: Radioligand binding, [3H] prazosin displacement, rat submaxillary membranes; settings: for Ki: [3H] prazosin displacement, rat submaxillary membranes, read-out: Affinity (Ki) α1A (Rat Submaxillary); for α1B/α1A: ratio of binding affinities, rat liver / rat submaxillary
T1 construct: from tissue; host or cells: rat submaxillary gland membranes
T1 sequence (P43140 1-466): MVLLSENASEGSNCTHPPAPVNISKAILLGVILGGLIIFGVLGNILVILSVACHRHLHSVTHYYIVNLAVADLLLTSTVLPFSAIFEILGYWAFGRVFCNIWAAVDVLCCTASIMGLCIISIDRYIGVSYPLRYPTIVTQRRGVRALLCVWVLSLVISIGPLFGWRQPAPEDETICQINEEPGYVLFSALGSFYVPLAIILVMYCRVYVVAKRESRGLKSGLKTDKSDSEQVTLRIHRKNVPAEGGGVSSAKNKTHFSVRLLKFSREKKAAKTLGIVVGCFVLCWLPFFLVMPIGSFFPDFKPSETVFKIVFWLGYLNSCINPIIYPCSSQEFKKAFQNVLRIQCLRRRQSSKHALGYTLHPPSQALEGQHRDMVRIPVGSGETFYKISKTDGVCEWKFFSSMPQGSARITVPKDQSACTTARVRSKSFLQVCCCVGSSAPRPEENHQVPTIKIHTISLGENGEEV
In short: (§1)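 Displacement of [3H]prazosin measured by filtration and counting, with Ki from IC50 via Cheng–Prusoff and nonspecific binding set by 300 nM prazosin. Native rat submaxillary (α1A) or liver (α1B) membranes, 150-250 μg protein, 1 h at 24-25° C in Tris/EDTA pH 7.4.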

[2] = target: T2, α1B adrenoceptor (Rattus norvegicus, UniProt P15823); assay: Radioligand binding, [3H] prazosin displacement, rat liver membranes; settings: read-out: Affinity (Ki) α1B (Rat Liver)
T2 construct: from tissue; host or cells: rat liver membranes
T2 sequence (P15823 1-515): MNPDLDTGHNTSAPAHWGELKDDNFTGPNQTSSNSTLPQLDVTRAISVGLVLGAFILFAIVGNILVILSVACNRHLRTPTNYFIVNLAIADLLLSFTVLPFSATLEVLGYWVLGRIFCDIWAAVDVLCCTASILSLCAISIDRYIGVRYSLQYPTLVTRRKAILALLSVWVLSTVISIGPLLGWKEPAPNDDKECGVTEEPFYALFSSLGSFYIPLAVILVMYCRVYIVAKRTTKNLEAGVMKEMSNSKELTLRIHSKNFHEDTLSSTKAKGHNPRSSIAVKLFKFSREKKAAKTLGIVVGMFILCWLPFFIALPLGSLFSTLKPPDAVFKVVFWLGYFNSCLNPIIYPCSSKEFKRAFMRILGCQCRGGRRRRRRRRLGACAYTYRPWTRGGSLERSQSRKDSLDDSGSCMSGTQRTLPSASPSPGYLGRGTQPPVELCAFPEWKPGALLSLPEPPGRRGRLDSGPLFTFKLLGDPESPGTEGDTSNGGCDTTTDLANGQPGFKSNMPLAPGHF
In short: as §1

[3] = target: T3, α1A adrenoceptor (prostate) (Rattus norvegicus, UniProt P43140); assay: In vitro functional assay, isolated prostate, phenylepinephrine contraction; format: cell-based; settings: for Selectivity α1B/α1A / Selectivity α1D/α1A: functional, from pKB; for Kb: read-out: α Adrenoceptor Subtype (pKB) α1A (converted)
T3 construct: from tissue; host or cells: isolated prostate tissue
T3 sequence (P43140 1-466): T1 sequence (P43140 1-466)
Source text: (§2) In order to study selectivity of action of these compounds towards different a-adrenoceptor subtypes, the ability of these compounds to antagonise (α1D) prostate (α1A) and spleen (α1B) was studied. Aorta and spleen tissues were isolated from urethane anaesthetized (1.5 g/kg) male wister rats. Isolated tissues were mounted in organ bath containing Krebs Henseleit buffer of the following composition (mM): NaCl 118; KCl 4.7; CaCl2 2.5; MgSO4 7H2O 1.2; NaHCO3 25; KH2PO4 1.2; glucose 11.5. Buffer was maintained at 37° C. and aereated with a mixture of 95% O2 and 5% CO2. A resting tension of 2 g (aorta) or 1 g (spleen and prostate) was applied to tissues. Contractile response was monitored using a force displacement transducer and recorded on chart recorders. Tissues were allowed to equilibrate for 2 hours. At the end of equilibration period, concentration response curves to norepinephrine (aorta) and phenylepinephrine (spleen and prostate) were obtained in the absence and presence of tested compound (at concentration of […]). Antagonist affinity was calculated and expressed as pKB values in Table II.

[4] = target: T4, α1B adrenoceptor (spleen) (Rattus norvegicus, UniProt P15823); assay: In vitro functional assay, isolated spleen, phenylepinephrine contraction; format: cell-based; settings: for Kb: read-out: α Adrenoceptor Subtype (pKB) α1B (converted)
T4 construct: Isolated tissues were mounted in organ bath containing Krebs Henseleit buffer; from tissue; host or cells: isolated rat spleen
T4 sequence (P15823 1-515): T2 sequence (P15823 1-515)
Source text: as §2

[5] = target: T5, α1D adrenoceptor (aorta) (Rattus norvegicus, UniProt P23944); assay: In vitro functional assay, isolated aorta, norepinephrine contraction; format: cell-based; settings: for Kb: read-out: α Adrenoceptor Subtype (pKB) α1D (converted)
T5 construct: Isolated tissues were mounted in organ bath containing Krebs Henseleit buffer; from tissue; host or cells: isolated rat aorta
T5 sequence (P23944 1-561): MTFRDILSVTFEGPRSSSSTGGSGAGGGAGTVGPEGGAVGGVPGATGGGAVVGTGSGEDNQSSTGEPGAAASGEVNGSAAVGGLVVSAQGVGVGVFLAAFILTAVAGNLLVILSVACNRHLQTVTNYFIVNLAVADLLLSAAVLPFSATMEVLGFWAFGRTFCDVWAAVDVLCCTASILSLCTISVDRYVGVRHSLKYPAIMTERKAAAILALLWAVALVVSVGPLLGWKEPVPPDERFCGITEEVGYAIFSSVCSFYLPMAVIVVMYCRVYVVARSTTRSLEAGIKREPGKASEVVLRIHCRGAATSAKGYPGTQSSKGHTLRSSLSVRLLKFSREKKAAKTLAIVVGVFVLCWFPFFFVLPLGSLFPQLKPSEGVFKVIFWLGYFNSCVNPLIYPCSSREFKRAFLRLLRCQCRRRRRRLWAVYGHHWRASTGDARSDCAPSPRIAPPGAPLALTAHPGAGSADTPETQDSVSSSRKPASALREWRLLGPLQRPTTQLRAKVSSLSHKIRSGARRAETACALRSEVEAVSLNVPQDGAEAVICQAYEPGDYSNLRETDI
Source text: as §2

[6] = rat prostate, phenylepinephrine

SMILES	Ki [1] [nM]	α1B/α1A [1]	Ki [2] [nM]	Selectivity α1B/α1A [3]	Selectivity α1D/α1A [3]	Kb [3, 6] [nM]	Kb [4] [nM]	Kb [5] [nM]	α Adrenoceptor Subtype (pKB) α1A [3, 6]	α Adrenoceptor Subtype (pKB) α1B [4]	α Adrenoceptor Subtype (pKB) α1D [5]
Cl.O=C1CCCC(=O)N1CCCN1CCN(c2ccccc2O)CC1 [compound 01, 1-[4-(2-Hydroxyphenyl)piperazin-1-yl]-3-(2,6-dioxopiperidin-1-yl)propane hydrochloride]	8.55	9	80	3.8	1.2	10	38	12	–	–	–
CCOc1ccccc1N1CCN(CC(O)CN2C(=O)C3CC=CCC3C2=O)CC1 (stereo not drawn) [Compound No. 11, 2-[3-{4-(2-Ethoxyphenyl)piperazin-1-yl}-2-hydroxypropyl]-3a,4,7,7a-tetrahydro-1H-isoindole-1,3-(2H)-dione hydrochloride]	6.4	30	191	0.1	0.5	7.24	0.759	3.72	–	–	–
CCOc1ccccc1[N+]1([O-])CC[N+]([O-])(CCCN2C(=O)C3CC=CCC3C2=O)CC1 (stereo not drawn) [Compound No. 10, 2-[3-{4-(2-Ethoxyphenyl)piperazin-1-yl, 1,4-N,N-dioxide}propyl]-3a,4,7,7a-tetrahydro-1H-isoindole-1,3(2H)-dione]	> 1000	–	> 1000	13	40	1.48	18.6	58.9	–	–	–
CC(C)Oc1ccc(O)cc1N1CCN(CCCN2C(=O)C3CC=CCC3C2=O)CC1.Cl (stereo not drawn) [Compound No. 21, 2-[3-{4-(2-Isopropoxy-5-hydroxyphenyl)piperazin-1-yl}propyl]-3a,4,7,7a-tetrahydro-1H-isoindole-1,3(2H)-dione hydrochloride]	3.4	189	643	15	5.24	4.68	70.8	24.5	–	–	–
CC(C)Oc1ccccc1[N+]1([O-])CC[N+]([O-])(CCCN2C(=O)C3CC=CCC3C2=O)CC1 (stereo not drawn) [compound 09, 2-[3-{4-(2-Isopropoxyphenyl)piperazin-1-yl, 1,4-N,N-dioxide}propyl]-3a,4,7,7a-tetrahydro-1H-isoindole-1,3-(2H)-dione]	1070	–	> 1000	3.3	14	7.08	23.4	100	–	–	–
CCOc1ccccc1N1CCN(CCCN2C(=O)C3CC(O)C(Cl)CC3C2=O)CC1.Cl (stereo not drawn) [Compound No. 17]	–	50	–	347	3.9	–	–	–	9.54	7	9.07
O=C1C2CC=CCC2C(=O)N1CC(O)CN1CCN(c2ccccc2OCC(F)(F)F)CC1 (stereo not drawn) [Compound No. 31, 2-[3-{4-(2-(2,2,2-Trifluoroethoxyphenyl)piperazin-1-yl}-2-hydroxypropyl]-3a,4,7,7a-tetrahydro-1H-isoindole-1,3(2H)-dione hydrochloride]	2.3	40	91	–	3.3	1.45	–	4.79	–	–	–
CC(C)Oc1ccccc1N1CCN(CC(O)CN2C(=O)C3CC4OC4CC3C2=O)CC1 (stereo not drawn) [Compound No. 30, 2-[3-{4-(2-Isopropoxyphenyl)piperazin-1-yl}-2-hydroxypropyl]-5,6-epoxy-3a,4,5,6,7,7a-hexahydro-1H-isoindole-1,3(2H)-dione]	1.7	231	393	–	5.2	1.66	–	8.71	–	–	–

The next lines start with results.

Ki [1] [nM]	α1B/α1A [1]	Ki [2] [nM]	Selectivity α1B/α1A [3]	Selectivity α1D/α1A [3]	Kb [3, 6] [nM]	Kb [4] [nM]	Kb [5] [nM]	SMILES	α Adrenoceptor Subtype (pKB) α1A [3, 6]	α Adrenoceptor Subtype (pKB) α1B [4]	α Adrenoceptor Subtype (pKB) α1D [5]
0.36	236	85	17	0.7	3.24	55	2.29	CC(C)Oc1ccccc1N1CCN(CCCN2C(=O)C3CC(O)C(O)CC3C2=O)CC1 (stereo not drawn) [Compound No. 13, 2-[3-{4-(2-Isopropoxyphenyl)piperazin-1-yl}propyl]-5,6-dihydroxy-3a,4,5,6,7,7a-hexahydro-1H-isoindole-1,3(2H)-dione]	–	–	–
0.23	452	104	87	3.4	0.794	69.2	2.69	CC(C)Oc1ccccc1N1CCN(CCCN2C(=O)C3CC4OC4CC3C2=O)CC1 (stereo not drawn) [Compound No. 19, 2-[3-{4-(2-Isopropoxyphenyl)piperazin-1-yl}propyl]-5,6-epoxy-3a,4,5,6,7,7a-hexahydro-1H-isoindole-1,3(2H)-dione]	–	–	–
0.56	189	106	13	1.9	1.23	15.8	2.29	CC(C)Oc1ccccc1N1CCN(CC(O)CN2C(=O)C3CC=CCC3C2=O)CC1.Cl (stereo not drawn) [compound 07, 2-[3-{4-(2-Isopropoxyphenyl)piperazin-1-yl}-2-hydroxypropyl]-3a,4,7,7a-tetrahydro-1H-isoindole-1,3(2H)-dione hydrochloride]	–	–	–
0.28	328	92	240	2.5	0.427	102	1.07	CC(C)Oc1ccccc1N1CCN(CCCN2C(=O)C3CCC(O)CC3C2=O)CC1 (stereo not drawn) [Compound No. 20, 2-[3-{4-(2-Isopropoxyphenyl)piperazin-1-yl}propyl]-5-hydroxy-3a,4,5,6,7,7a-hexahydro-1H-isoindole-1,3(2H)-dione]	–	–	–
0.24	142	34	18	2.6	0.603	11	1.58	Cl.O=C1C2CCC(O)CC2C(=O)N1CCCN1CCN(c2ccccc2OCC(F)(F)F)CC1 (stereo not drawn) [Compound No. 33, 2-[3-{4-(2-(2,2,2-Trifluoroethoxy)phenyl)piperazin-1-yl}propyl]-5-hydroxy-3a,4,5,6,7,7a-hexahydro-1H-isoindole-1,3(2H)-dione hydrochloride]	–	–	–
